Reference: the NIST ThermoML archive (doi:10.1021/acs.jced.6b00959)

Test: molar heat capacity at constant pressure
Details: Liquid, Flow calorimetry

C=C(F)C(F)(F)F [2,3,3,3-tetrafluoro-1-propene]
Details	molar heat capacity at constant pressure [J/K/mol]
303.53 K, 2030 kPa	157.15
303.55 K, 2530 kPa	156.01
303.58 K, 1570 kPa	160.11
303.6 K, 8010 kPa	146.09
303.6 K, 8490 kPa	146.2
303.6 K, 10010 kPa	145.75
303.61 K, 6980 kPa	146.66
303.61 K, 7490 kPa	146.89
303.61 K, 8980 kPa	145.75
303.61 K, 9470 kPa	145.75
303.67 K, 10990 kPa	144.49
303.72 K, 3040 kPa	154.41
303.72 K, 10520 kPa	144.95
303.73 K, 5000 kPa	150.88
303.74 K, 3530 kPa	154.18
303.75 K, 4020 kPa	153.16
303.75 K, 5520 kPa	150.19
303.77 K, 6510 kPa	148.6
303.79 K, 11450 kPa	144.03
303.79 K, 12070 kPa	143.69
303.8 K, 5980 kPa	148.82
303.81 K, 4520 kPa	151.45
313.61 K, 6020 kPa	154.3
313.63 K, 5000 kPa	157.04
313.64 K, 4490 kPa	158.18
313.64 K, 7500 kPa	151.68
313.64 K, 7980 kPa	151.11
313.65 K, 8490 kPa	150.65
313.66 K, 1510 kPa	166.04
313.66 K, 4000 kPa	159.77
313.66 K, 6990 kPa	152.82
313.67 K, 2010 kPa	165.36
313.69 K, 2510 kPa	165.02
313.69 K, 3000 kPa	164.11
313.69 K, 6500 kPa	153.96
313.7 K, 9500 kPa	149.85
313.7 K, 10010 kPa	149.51
313.7 K, 11460 kPa	147.8
313.72 K, 3510 kPa	162.62
313.72 K, 8970 kPa	150.31
313.72 K, 10500 kPa	148.94
313.72 K, 10980 kPa	148.6
313.72 K, 12040 kPa	147.46
313.79 K, 5490 kPa	154.53
323.62 K, 2020 kPa	170.26
323.63 K, 6940 kPa	155.67
323.64 K, 7520 kPa	154.98
323.64 K, 8000 kPa	154.41
323.64 K, 8510 kPa	153.73
323.65 K, 2500 kPa	168.67
323.65 K, 9540 kPa	152.25
323.66 K, 8960 kPa	153.39
323.66 K, 9990 kPa	152.02
323.68 K, 3010 kPa	167.41
323.68 K, 10980 kPa	151.11
323.69 K, 3510 kPa	165.93
323.69 K, 4520 kPa	162.51
323.69 K, 6490 kPa	157.61
323.69 K, 10530 kPa	151.79
323.7 K, 11470 kPa	150.31
323.71 K, 3990 kPa	164.79
323.71 K, 5020 kPa	161.37
323.71 K, 5500 kPa	159.89
323.71 K, 5990 kPa	159.09
323.73 K, 12010 kPa	150.08
333.61 K, 5490 kPa	165.47
333.63 K, 3000 kPa	179.5
333.63 K, 5980 kPa	164.68
333.66 K, 3480 kPa	177.56
333.66 K, 4500 kPa	170.72
333.66 K, 7020 kPa	161.71
333.67 K, 2080 kPa	185.77
333.68 K, 2520 kPa	183.95
333.68 K, 5000 kPa	169.12
333.68 K, 6510 kPa	162.74
333.69 K, 7500 kPa	161.03
333.69 K, 9010 kPa	159.09
333.69 K, 9990 kPa	156.69
333.71 K, 4040 kPa	175.4
333.72 K, 8010 kPa	160.68
333.72 K, 8500 kPa	159.66
333.72 K, 9490 kPa	157.61
333.79 K, 10520 kPa	155.21
333.79 K, 11000 kPa	154.75
333.82 K, 11480 kPa	154.07
333.82 K, 12030 kPa	153.61
343.67 K, 10510 kPa	157.83
343.68 K, 2530 kPa	204.93
343.68 K, 3510 kPa	187.26
343.68 K, 11500 kPa	156.58
343.69 K, 11060 kPa	156.92
343.7 K, 4490 kPa	178.48
343.7 K, 9470 kPa	159.89
343.7 K, 12010 kPa	155.89
343.71 K, 7000 kPa	165.47
343.72 K, 6040 kPa	169.35
343.73 K, 6510 kPa	168.55
343.73 K, 7500 kPa	164.45
343.73 K, 7980 kPa	163.76
343.74 K, 3990 kPa	183.49
343.75 K, 5020 kPa	175.74
343.75 K, 10020 kPa	159.54
343.77 K, 8520 kPa	163.19
343.79 K, 3010 kPa	196.61
343.8 K, 9010 kPa	162.51
343.81 K, 5560 kPa	173.23
353.69 K, 10520 kPa	163.99
353.71 K, 6510 kPa	177.79
353.71 K, 8500 kPa	169.24
353.73 K, 4510 kPa	196.61
353.73 K, 4990 kPa	190.11
353.73 K, 5500 kPa	185.77
353.73 K, 11010 kPa	162.85
353.74 K, 8990 kPa	168.33
353.75 K, 6990 kPa	175.97
353.76 K, 11520 kPa	162.62
353.77 K, 9530 kPa	166.96
353.78 K, 6040 kPa	182.58
353.78 K, 12010 kPa	161.94
353.79 K, 7490 kPa	173.8
353.79 K, 10010 kPa	165.93
353.81 K, 7990 kPa	172.66
363.69 K, 6030 kPa	189.42
363.73 K, 10520 kPa	167.98
363.74 K, 5480 kPa	198.2
363.75 K, 4510 kPa	225
363.75 K, 7990 kPa	175.85
363.76 K, 7020 kPa	181.78
363.76 K, 10010 kPa	169.12
363.76 K, 11050 kPa	167.3
363.77 K, 6500 kPa	186.46
363.78 K, 4990 kPa	209.38
363.78 K, 7530 kPa	178.7
363.78 K, 8990 kPa	172.09
363.78 K, 11500 kPa	166.96
363.79 K, 8510 kPa	174.26
363.8 K, 9490 kPa	171.06
363.83 K, 12080 kPa	166.96
373.09 K, 4510 kPa	297.19
373.19 K, 4990 kPa	241.54
373.24 K, 5480 kPa	217.82
373.28 K, 5980 kPa	202.31
373.3 K, 6490 kPa	191.25
373.3 K, 7000 kPa	185.09
373.3 K, 7520 kPa	180.3
373.32 K, 8030 kPa	177.33
373.32 K, 8510 kPa	174.94
373.32 K, 8990 kPa	172.32
373.34 K, 9510 kPa	171.52
373.36 K, 9990 kPa	170.95
373.38 K, 10530 kPa	169.58
373.39 K, 11020 kPa	168.44
373.4 K, 11510 kPa	167.87
373.42 K, 11980 kPa	167.41
